Test results taken from patent US8791163B2 (McGill University, priority 2006, dated 2014).

Tests used:
[1] = target: T1, cloned human MT2 receptors (Homo sapiens, UniProt P49286); assay: 2-[125I]iodomelatonin competition binding, human MT2 in NIH3T3 cells; settings: human recombinant receptors expressed in NIH3T3 cells
T1 construct: expressed in transfected cells
T1 sequence (P49286 1-362): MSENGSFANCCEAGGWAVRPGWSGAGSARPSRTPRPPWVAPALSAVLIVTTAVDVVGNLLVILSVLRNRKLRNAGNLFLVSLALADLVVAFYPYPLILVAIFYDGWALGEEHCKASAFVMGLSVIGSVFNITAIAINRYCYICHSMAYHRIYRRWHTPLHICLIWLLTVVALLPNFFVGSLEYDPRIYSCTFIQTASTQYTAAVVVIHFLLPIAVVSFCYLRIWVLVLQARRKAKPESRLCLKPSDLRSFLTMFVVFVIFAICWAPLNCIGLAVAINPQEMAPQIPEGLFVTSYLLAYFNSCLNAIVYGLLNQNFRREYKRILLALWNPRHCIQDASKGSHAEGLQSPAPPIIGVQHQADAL

Sprague Dawley rats = assay: Novelty-Induced Suppressed Feeding (NSF) Test; assay type: in vivo, rat; settings: for Latency (sec) to feed: 60 min before the test
Protocol: The NSF test is used to assess the anti-anxiety effect of a drug [Bodnoff et al. Psychopharmacology 1988, 95(3), 298-307]. Sprague Dawley rats were used in the NSF test. The testing apparatus comprises a brightly lit open area covered with lab chow pellets. Forty-eight hours prior to behavioral testing, all food was removed from the apparatus. Animals treated with compound 5b (40 or 80 mg/kg) were injected 60 min before the test, whereas animals treated with vehicle (DMSO/saline 7:3) or diazepam were injected 45 min before the test. The drugs were administered subcutaneously and the experiments were conducted after 5:30 PM. The latency to feed, defined as chewing the food as opposed to merely sniffing or playing with a pellet, was then recorded (Table 6). The experiment was terminated for those animals that had not begun eating within a period of 360 seconds, which animals were assigned a latency score of 360 seconds. All analyses were conducted using Sigma Stats and SPSS software. The results are expressed as the mean±SEM per n (number) animals tested (*, p<0.01, ANOVA or t test).

higher affinity for the MT2 than for the MT1 subtype [1]: ~100 fold
Structure (SMILES): COc1cccc(N(CCNC(C)=O)c2ccccc2)c1 [5b, N-{2-[(3-Methoxyphenyl)-phenylamino]ethyl}acetamide]
Latency (sec) to feed (Sprague Dawley rats; 5b 40 mg/kg s.c.): 106.75 ± 10.13 (P ≦ 0.001)* sec
Latency (sec) to feed (Sprague Dawley rats; 5b 80 mg/kg s.c.): 115.28 ± 13.89 (P ≦ 0.001)* sec
latency to feed (FIG. 5) (Sprague Dawley rats; 5b 40 and 80 mg/kg, injected 60 min before the test, vs vehicle): decreased latency to feed
